How the values were obtained:
LOVO = assay: MTT assay; format: cell-based; conditions: Homo sapiens, 72 h incubation, mean ± SD of three experiments, read-out: IC50 ± SD, Colon LOVO
Procedure: (§1) The 3-(4,5-dimethylthiazol-2-yl)-2,5-diphenyltetrazolium bromide (MTT) assay was used to determine the sensitivity of the different CRC cells to the novel silybin derivatives (Hussein et al., [2017]; Manivannan et al., [2017]). The cells were seeded at a density of 4,000–5,000 cells/well in 96 well plates and incubated with serial dilutions of the compounds (0, 0.1, 0.3, 1, 3, 10, 30, and 100 μM). The MTT dye (4 mg/ml) was added after 72 h of incubation and incubated with the cells for an additional 4 h at 37°C. Following incubation, the media was discarded and the formazan crystals were dissolved by adding 100 μL of DMSO to each well. A DTX 880 multimode detector (Beckman Coulter Life, Indianapolis IN, USA) was used to determine the absorbance readings at a wavelength of 570 nm. The IC50 values were determined based on 3 separate experiments, with each experiment done in triplicate. The selectivity of the compounds was determined by comparing their cytotoxicity for CRC to normal epithelial cell lines (CHO, and CRL1459).

S1 = assay: MTT assay; format: cell-based; conditions: Homo sapiens, 72 h incubation, mean ± SD of three experiments, read-out: IC50 ± SD, Colon S1
Procedure: as §1

CHO = assay: MTT assay, normal cell line; format: cell-based, Chinese hamster; conditions: Cricetulus griseus, 72 h incubation, mean ± SD of three experiments
Procedure: as §1

HCT116 [1] = assay: MTT assay; format: cell-based, human; conditions: for IC50: Homo sapiens, HCT-116, MTT, 72 h incubation, mean ± SD of three experiments, read-out: IC50 ± SD, Colon HCT116
Procedure: as §1

CRL-1459 = assay: MTT assay, normal cell line; format: cell-based; conditions: 72 h incubation, mean ± SD of three experiments
Procedure: as §1

[2] = system: CRC cell lines (HCT116, LOVO, and S1); assay: MTT assay, CRC cell lines together; format: cell-based, human
Procedure: as §1

HCT116 cells [3] = assay: Colony formation assay; format: cell-based, human; conditions: 2 and 4 μM, 12 h incubation, colonies 10–14 days, vs vehicle control
Procedure: In this assay, HCT116 cells were seeded in 6 well plates at a density of 250,000 cells/plate and allowed to grow overnight. Compounds 15j and 15k (0, 2 or 4 μM) were added the following day. After 12 h of incubation, the medium was discarded and cells were trypsinized with 0.25% trypsin, 2.21 mM EDTA, 1X, harvested, counted and reseeded in 6 well plates at a low density (500 cell/well). The cells were allowed to form colonies for 10–14 days at 37°C, with the medium being changed every other day. Subsequently, methanol was used to fix the colonies formed in each plate, followed by dyeing the colonies with 0.1% crystal violet dye for 30 min. Finally, colonies were viewed and counted under an EVOS microscope (Themo Fisher Scientific, Wayne, MI, USA). The colony formation rate equation was applied for each compound: Colony formation rate = number of colonies/number of seeded cells × 100 %.

HCT116 cells [4] = assay: MitoTracker Red / Alexa Fluor 488 annexin V flow cytometry; format: cell-based, human; conditions: 2 or 4 μM, p < 0.001 vs control, data not shown
Procedure: The mitochondrial membrane potential and the induction of apoptosis were analyzed in HCT116 cells using the MitoTracker Red and Alexa Fluor 488 annexin V kits for flow cytometry as previously described (Karthikeyan et al., [2015]). Six well plates were used for seeding of cells, followed by incubation with 15j or 15k (0, 1, 2, and 4μM) for overnight. Subsequently, the cells were harvested, counted and 4 μl of a 10μM working solution of MitoTracker Red was added to each 1 ml cell suspension, followed by 30 min of incubation at 37°C with 5% CO2. The cells were resuspended in 100 μl of annexin binding buffer and 5 μl of Alexa Fluor 488 annexin V was added to the suspension and incubated for 15 min. Finally, 400 μl of annexin-binding buffer was added and the stained cells were detected by flow cytometry. The fluorescence emission at 530 and 585 nm was measured using a BD Accuri™ C6 flow cytometer and analyzed using FCS express 5 plus De Novo software.

LOVO cells [5] = assay: Wound healing assay; format: cell-based, human; conditions: 2 and 4 μM, 24 h and 48 h, vs vehicle
Procedure: In brief, the metastatic CRC cells (LOVO) were seeded in 6 well plates and allowed to grow as a monolayer until they reached 100% confluence. Upon confluence, 200 μl sterile tips were used to create a wound by gentle scratching of the complete cell monolayer. Sterile PBS was used to wash the cells several times to remove any floating cells. Different concentrations of the test compound were prepared in the culture media and added immediately after wound formation. The closure of the wound was observed by taking pictures at different time points by an EVOS microscope. Finally, the area of the wounds at different time points was calculated using Image J software (NIH, Bethesda, Maryland, USA).

COLO 205 cell line = assay: Transwell migration assay; format: cell-based; conditions: 2 and 4 μM, data not shown
Procedure: (§2) The effect of compound 15k on the invasiveness of LOVO was tested using 24 trans-well inserts with an […]. The addition of the insert to the well forms two chambers (upper and lower), where the upper chamber was used to grow the cells on the porous membrane. The lower chamber was filled with 600 μl of cell-free DMEM medium. A 200 μl of cell suspension was added to each insert and allowed to attach for 1 h. The test compound was added in different concentrations and incubated with the cells for 24 h. […] Finally, the remaining migrated cells were fixed by methanol and dyed with 0.1% crystal violet dye and observed with an EVOS microscope. The number of migrated cells was counted and compared between the treated and control cells.
The development of cancer metastasis is dependent on the migration and invasive properties of cancerous cells (van Zijl et al., [2011]). The wound healing and transwell migration assays were used with LOVO cells, as a model for metastatic CRC as it is characterized by a high level of invasiveness (Fan et al., [2015]). The wound healing assay is a well-established method to detect and analyze cell migration potential (Liang et al., [2007]). […] The effect of compound 15k on the invasiveness of COLO 205 cell line was also measured using trans-well migration assay. […] 15j also reversed cell migration and metastasis at different concentrations.

HCT116 cells [6] = assay: CellTiter-Glo luminescent assay (ATP content); format: cell-based; conditions: Homo sapiens, HCT-116, data not shown, read-out: IC50, ATP depletion
Procedure: Subsequently, we conducted experiments to determine if compound 15k produced a time-dependent effect on cell death. […] The HCT116 cells had intense fluorescence over time compared to the cells incubated with vehicle, with a significant difference in the number of dead cells after 24 h of incubation with 2 μM of 15k. […] The cytotoxicity of 15k and 15j in HCT116 cells were further determined using a more homogeneous CellTiter-Glo® luminescent cell based assay that measures the ATP content in the metabolically active cells.

HCT116 [7] = assay: Cell cycle analysis (PI, flow cytometry); format: cell-based, human; conditions: 0, 2 or 4 μM, 12 h, data not shown
Procedure: Cell cycle analysis was performed as described previously (Pozarowski and Darzynkiewicz, [2004]). Briefly, a 6 well plate was used for the seeding of HCT116 at 1 × 10^6 cells/well. The next day, 15j and 15k (0, 2, or 4 μM) were added and incubated with the seeded cells. After 12 h, the cells were trypsinzed with 0.25% trypsin, 2.21 mM EDTA, 1X, washed, counted and resuspended in 0.5 ml of ice cold PBS. PI stain was added to each suspension for at least 15 min to stain the DNA. The cell cycle analysis and cell distribution for each phase was measured using a BD Accuri™ C6 flow cytometer (BD Biosciences, Becton-Dickinson, San Jose, CA, USA) and analyzed using FCS express 5 plus De Novo software (Glendale, CA, USA).

LOVO cells [8] = assay: Transwell migration assay; format: cell-based, human; conditions: 2 and 4 μM, 24 h, vs vehicle
Procedure: as §2

| IC50 (LOVO) [µM] | IC50 (HCT116 [1]) [µM] | IC50 (HCT116 cells [6]) [nM] | Structure (SMILES) | IC50 (S1) [µM] | IC50 (CHO) [µM] | IC50 (CRL-1459) [µM] | fold more efficacious than compound 15c (HCT116 [1]; from MTT IC50, cell line not given) [fold] | fold more efficacious than compound 15c in LOVO and S1 cells ([2]; from MTT IC50, LOVO and S1) | colony formation rate (HCT116 cells [3]) | mitochondrial membrane potential and apoptosis (HCT116 cells [4]) | cell migration, wound closure (LOVO cells [5]) | trans-well migration (COLO 205 cell line) | selectivity, CRC cells compared to normal cells ([2]; MTT, vs CRL1459 and CHO) | effect on the cell cycle (HCT116 [7]) | number of cells migrated through transwell (LOVO cells [8]) |
| --- | --- | --- | --- | --- | --- | --- | --- | --- | --- | --- | --- | --- | --- | --- | --- |
| 36.5 ± 1.5 | 12.7 ± 1.4 | – | O=C(/C=C/c1cccc(OCc2ccccc2)c1)c1ccc(Cl)cc1 [Compound 15b] | 9.5 ± 1.4 | 43.6 ± 1.9 | 12.8 ± 2.1 | – | – | – | – | – | – | – | – | – |
| 36.5 ± 1.3 | 16.5 ± 3.1 | – | Cc1ccc(C(=O)/C=C/c2cccc(OCc3ccccc3)c2)cc1 [Compound 15e] | 22.4 ± 1.9 | 26.4 ± 0.9 | 19.8 ± 1.3 | – | – | – | – | – | – | – | – | – |
| 11.8 ± 3.5 | 44.7 ± 3.1 | – | COc1ccc(C(=O)/C=C/c2cccc(OCc3ccccc3)c2)cc1 [Compound 15f] | 23.4 ± 2.4 | 22.9 ± 0.3 | 25.4 ± 1.9 | – | – | – | – | – | – | – | – | – |
| 1.8 ± 0.4 | 1 ± 0.2 | 690 | O=C(/C=C/c1cccc(OCc2ccccc2)c1)c1ccc(Br)cc1 [Compound 15j] | 2.4 ± 0.7 | 9 ± 0.5 | 5.4 ± 1 | – | – | significantly decreased colony formation rate | significant reduction in membrane potential and increase in the number of cells undergoing apoptosis | migrated significantly slower | significantly reduced the trans-well migration | selectively cytotoxic | significantly increased the level of cells in the sub G1 phase | significantly reduced the trans-well migration |

The remaining lines, values behind:

| Structure (SMILES) | IC50 (LOVO) [µM] | IC50 (HCT116 [1]) [µM] | IC50 (HCT116 cells [6]) [nM] | IC50 (S1) [µM] | IC50 (CHO) [µM] | IC50 (CRL-1459) [µM] | fold more efficacious than compound 15c (HCT116 [1]; from MTT IC50, cell line not given) [fold] | fold more efficacious than compound 15c in LOVO and S1 cells ([2]; from MTT IC50, LOVO and S1) | colony formation rate (HCT116 cells [3]) | mitochondrial membrane potential and apoptosis (HCT116 cells [4]) | cell migration, wound closure (LOVO cells [5]) | trans-well migration (COLO 205 cell line) | selectivity, CRC cells compared to normal cells ([2]; MTT, vs CRL1459 and CHO) | effect on the cell cycle (HCT116 [7]) | number of cells migrated through transwell (LOVO cells [8]) |
| --- | --- | --- | --- | --- | --- | --- | --- | --- | --- | --- | --- | --- | --- | --- | --- |
| O=C(/C=C/c1cccc(OCc2ccccc2)c1)c1ccccc1 [Compound 15a] | 11.5 ± 0.8 | 6.4 ± 0.2 | – | 2.8 ± 0.5 | 22 ± 1.7 | 7.8 ± 1 | – | – | – | – | – | – | – | – | – |
| O=C(/C=C/c1cccc(OCc2ccccc2)c1)c1ccc(Cl)cc1Cl [Compound 15c] | 6.7 ± 2.2 | 9 ± 1.1 | – | 6.9 ± 1.1 | 27.5 ± 1.2 | 7.8 ± 1.1 | – | – | – | – | – | – | – | – | – |
| O=C(/C=C/c1cccc(OCc2ccccc2)c1)c1ccc([N+](=O)[O-])cc1 [Compound 15d] | 36.3 ± 9.1 | 22.7 ± 4.2 | – | 9 ± 1.2 | 82.4 ± 1.7 | 26 ± 1.6 | – | – | – | – | – | – | – | – | – |
| O=C(/C=C/c1cccc(OCc2ccccc2)c1)c1ccc(Cl)c(Cl)c1Cl [Compound 15g] | 2.4 ± 0.4 | 0.4 | – | 2.3 ± 0.7 | 8.6 ± 0.9 | 2.5 ± 0.2 | 22 | three-fold | – | – | – | – | – | – | – |
| O=C(/C=C/c1cccc(OCc2ccccc2)c1)c1ccccc1Br [Compound 15h] | 1.9 ± 0.3 | 0.7 ± 0.2 | – | 1.9 ± 0.5 | 9.1 ± 0.2 | 2.4 ± 0.9 | – | – | – | – | – | – | – | – | – |
| O=C(/C=C/c1cccc(OCc2ccccc2)c1)c1cccc(Br)c1 [Compound 15i] | 7.5 ± 0.9 | 1.9 ± 0.1 | – | 6.2 ± 1.9 | 9.2 ± 0.4 | 7.2 ± 0.9 | – | – | – | – | – | – | – | – | – |
